The results in this text go back to US10829473B2, “Modulators of the cystic fibrosis transmembrane conductance regulator protein and methods of use” (AbbVie Overseas S.Á.R.L., priority 2017, dated 2020).

Broadly, the EC50 is the concentration giving half of the maximal effect.

Read-outs that look alike come from different tables or passages of the source. Where only a bound is given, the exact number is not on record here.

The target in this test is T1, F508delCFTR (Homo sapiens, UniProt P13569, DEL508-508).
T1 construct: expressed in transfected cells; host or cells: CFBE41o- human lung derived epithelial cells (CFBE41o-F508delCFTR-HRP), doxycycline-inducible
The test is described as follows: Cell Surface Expression-Horse Radish Peroxidase (CSE-HRP) Assay.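 As to EC50 (with co-corrector): co-corrector chromenyl benzoic acid corrector at 2 or 3 µM.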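 As to Maximum % activity (without co-corrector): % of on-plate positive control chromenyl benzoic acid corrector at 2 or 3 µM.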 In kind it is cell-based. The note with it: for Emax: read-out: Maximum % activity (without co-corrector). Put shortly:
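Corrector compounds were given as 8-point 3-fold series from 20 or 30 μM, with or without a 2 μM co-corrector, for 18-24 h at 33 °C. Surface HRP was read by luminol luminescence as % of positive control; variable-Hill-slope sigmoidal fitting gave EC50 from triplicate plates.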

Where [1] appears, read: test compound with co-corrector, maximum at any tested concentration.
The mark [2] stands for this setting: test compound with co-corrector, read-out: EC50 (with co-corrector).
Setting [3] is: test compound without co-corrector, maximum at any tested concentration.
The mark [4] stands for this setting: test compound without co-corrector, read-out: EC50 (without co-corrector).
Where [5] appears, read: test compound alone, without co-corrector, read-out: EC50 (without co-corrector).
The mark [6] stands for this setting: with co-corrector, maximum at any tested concentration.
The mark [7] stands for this setting: with co-corrector, read-out: EC50 (with co-corrector).
[8] abbreviates: without co-corrector, maximum at any tested concentration.

T1 sequence (P13569 with tags, fused parts or gaps DEL508-508): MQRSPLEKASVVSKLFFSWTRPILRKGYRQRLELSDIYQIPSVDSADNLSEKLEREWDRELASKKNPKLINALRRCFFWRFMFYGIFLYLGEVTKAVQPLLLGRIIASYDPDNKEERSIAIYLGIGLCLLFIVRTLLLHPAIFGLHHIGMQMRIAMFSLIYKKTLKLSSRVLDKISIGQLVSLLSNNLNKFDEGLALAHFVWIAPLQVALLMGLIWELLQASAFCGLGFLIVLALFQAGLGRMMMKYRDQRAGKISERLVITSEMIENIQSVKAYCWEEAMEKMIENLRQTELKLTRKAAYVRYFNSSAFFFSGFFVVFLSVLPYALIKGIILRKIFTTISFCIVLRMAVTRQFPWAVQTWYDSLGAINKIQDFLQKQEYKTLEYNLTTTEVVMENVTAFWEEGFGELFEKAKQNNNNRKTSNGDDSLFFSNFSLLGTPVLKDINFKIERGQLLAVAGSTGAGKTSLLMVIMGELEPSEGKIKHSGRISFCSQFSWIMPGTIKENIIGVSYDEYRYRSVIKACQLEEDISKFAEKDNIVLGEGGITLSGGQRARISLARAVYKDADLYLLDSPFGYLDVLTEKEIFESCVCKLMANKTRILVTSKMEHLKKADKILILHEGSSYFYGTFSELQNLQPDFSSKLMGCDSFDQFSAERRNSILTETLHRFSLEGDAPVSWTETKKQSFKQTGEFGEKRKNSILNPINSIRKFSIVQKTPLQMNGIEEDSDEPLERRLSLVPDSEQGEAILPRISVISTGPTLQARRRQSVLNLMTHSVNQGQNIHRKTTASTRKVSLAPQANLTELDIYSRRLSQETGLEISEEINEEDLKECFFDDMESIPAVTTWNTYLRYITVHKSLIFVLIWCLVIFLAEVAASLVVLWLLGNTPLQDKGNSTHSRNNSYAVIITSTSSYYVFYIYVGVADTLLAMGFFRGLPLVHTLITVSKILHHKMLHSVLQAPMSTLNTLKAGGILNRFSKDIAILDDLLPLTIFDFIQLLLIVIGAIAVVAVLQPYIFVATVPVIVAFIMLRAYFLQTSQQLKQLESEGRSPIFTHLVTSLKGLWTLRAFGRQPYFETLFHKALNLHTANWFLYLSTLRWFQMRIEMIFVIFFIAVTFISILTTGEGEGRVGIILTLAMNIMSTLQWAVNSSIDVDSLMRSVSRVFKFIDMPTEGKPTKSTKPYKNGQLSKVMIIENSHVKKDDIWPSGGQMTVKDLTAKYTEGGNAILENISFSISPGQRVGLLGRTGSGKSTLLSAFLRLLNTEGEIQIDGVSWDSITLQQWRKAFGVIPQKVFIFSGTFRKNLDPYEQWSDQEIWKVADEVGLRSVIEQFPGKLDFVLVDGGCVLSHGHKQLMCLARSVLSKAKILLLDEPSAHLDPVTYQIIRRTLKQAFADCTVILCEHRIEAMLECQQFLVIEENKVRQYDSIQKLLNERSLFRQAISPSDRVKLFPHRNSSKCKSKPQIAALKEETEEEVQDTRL

Regarding `Cc1ccc2c(S(=O)(=O)NC(=O)C3(c4cc(C5CC5)cnc4OCC(C)C)CC3)cccc2n1` [Example GI-49, 1-[5-cyclopropyl-2-(2-methylpropoxy)pyridin-3-yl]-N-(2-methylquinoline-5-sulfonyl)cyclopropane-1-carboxamide], the “Maximum % activity (with co-corrector)” value under setting [1] was “+++ (≥350)”. Besides, the EC50 was < 3 µM under setting [2] and < 3 µM under setting [4]. Besides, the Emax under setting [3] was > 150%.
For `CO[C@H](C)COc1ccc(C)cc1C1(C(=O)NS(=O)(=O)c2cccc3ncccc23)CC1` [Example I-115, 1-{2-[(2R)-2-methoxypropoxy]-5-methylphenyl}-N-(quinoline-5-sulfonyl)cyclopropane-1-carboxamide], the EC50 by setting is: under setting [5], < 3 µM; under setting [7], < 3 µM. In addition, under setting [6], the “Maximum % activity (with co-corrector)” value is on record as “+++ (≥350)”. The Emax under setting [8] is > 150%.
For the compound `O=C(NS(=O)(=O)c1cccc2ccccc12)C1(c2cc(Cl)cnc2C(F)(F)F)CC1` [GII-5, 1-[5-chloro-2-(trifluoromethyl)pyridin-3-yl]-N-(naphthalene-1-sulfonyl)cyclopropane-1-carboxamide], under setting [1], the “Maximum % activity (with co-corrector)” value is “++ (≥150 and <350)”. Also, the EC50 was 3 to 10 µM under setting [2] and 3 to 10 µM under setting [4]. For the same compound, the Emax under setting [3] fell in the range of 50 to 150%.
Regarding `CCOc1ccc(C2(OC)CCC2)cc1C1(C(=O)NS(=O)(=O)c2cccc3ncccc23)CC1` [Example I-102, 1-[2-ethoxy-5-(1-methoxycyclobutyl)phenyl]-N-(quinoline-5-sulfonyl)cyclopropane-1-carboxamide], the EC50 is, setting by setting: under setting [5], < 3 µM; under setting [7], < 3 µM. The “Maximum % activity (with co-corrector)” value under setting [6] is given as “+++ (≥350)”. The Emax under setting [8] was > 150%.
Consider `COc1ccc(C2CCC2)cc1C1(C(=O)NS(=O)(=O)c2cccc3cnn(C)c23)CC1` [Example I-60, 1-(5-cyclobutyl-2-methoxyphenyl)-N-(1-methyl-1H-indazole-7-sulfonyl)cyclopropane-1-carboxamide], for which the EC50 reads like this: under setting [5], < 3 µM; under setting [7], < 3 µM. Further, the “Maximum % activity (with co-corrector)” value under setting [6] is on record as “+++ (≥350)”. Also, under setting [8], the Emax is > 150%.
For the compound `COc1ccc(C)cc1C1(C(=O)NS(=O)(=O)c2cccc3nc(C)ccc23)CC1` [Example I-64, 1-(2-methoxy-5-methylphenyl)-N-(2-methylquinoline-5-sulfonyl)cyclopropane-1-carboxamide], the EC50 under setting [5] is < 3 µM and the EC50 under setting [7] was < 3 µM. For the same compound, the “Maximum % activity (with co-corrector)” value under setting [6] is “+++ (≥350)”. In addition, the Emax under setting [8] is > 150%.
For `Cc1cnc(N2CCCC2)cc1C1(C(=O)NS(=O)(=O)c2cccc3ncccc23)CC1` [GII-9, 1-[5-methyl-2-(pyrrolidin-1-yl)pyridin-4-yl]-N-(quinoline-5-sulfonyl)cyclopropane-1-carboxamide], the “Maximum % activity (with co-corrector)” value under setting [1] was “++ (≥150 and <350)”. Also, the EC50 runs as follows: under setting [2], 3 to 10 µM; under setting [4], 3 to 10 µM. Further, the Emax under setting [3] is 50 to 150%.
Turning to `COc1ccc(C2CCC2)cc1C1(C(=O)NS(=O)(=O)c2cccc3c2CCCN3)CCC1` [Example I-10, 1-(5-cyclobutyl-2-methoxyphenyl)-N-(1,2,3,4-tetrahydroquinoline-5-sulfonyl)cyclobutane-1-carboxamide], the 50% effective concentration (EC50) is, setting by setting: under setting [5], 3 to 10 µM; under setting [7], < 3 µM. In addition, the “Maximum % activity (with co-corrector)” value under setting [6] was “+++ (≥350)”. The Emax under setting [8] was > 150%.
For `Cc1ccc(C2(C(=O)NS(=O)(=O)c3cccc4ncccc34)CC2)c(OC(C)C)n1` [Example GI-80, 1-{6-methyl-2-[(propan-2-yl)oxy]pyridin-3-yl}-N-(quinoline-5-sulfonyl)cyclopropane-1-carboxamide], the “Maximum % activity (with co-corrector)” value under setting [1] is given as “+++ (≥350)”. The EC50 was < 3 µM under setting [2] and < 3 µM under setting [4]. Besides, the Emax under setting [3] was > 150%.
Turning to `Cc1cnc(OC(C)C)c(C2(C(=O)NS(=O)(=O)c3cccc4nc(N)ccc34)CC2)c1` [Example I-97, N-(2-aminoquinoline-5-sulfonyl)-1-{5-methyl-2-[(propan-2-yl)oxy]pyridin-3-yl}cyclopropane-1-carboxamide], the EC50 is < 3 µM under setting [5] and < 3 µM under setting [7]. Besides, the “Maximum % activity (with co-corrector)” value under setting [6] is given as “+++ (≥350)”. Under setting [8], the Emax is > 150%.
Regarding `O=C(NS(=O)(=O)c1ccc2ccccc2c1)C1(c2ccc(Cl)cc2Cl)CC1` [Example III-27, 1-(2,4-dichlorophenyl)-N-(naphthalene-2-sulfonyl)cyclopropane-1-carboxamide], the EC50 runs as follows: under setting [5], > 10 µM; under setting [7], > 10 µM. Also, the “Maximum % activity (with co-corrector)” value under setting [6] was “+ (<150)”. Besides, under setting [8], the Emax was < 50%.
In the case of `COCC1(c2ccc(OC)c(C3(C(=O)NS(=O)(=O)c4cccc5ncccc45)CC3)c2)CC1` [Example I-73, 1-{2-methoxy-5-[1-(methoxymethyl)cyclopropyl]phenyl}-N-(quinoline-5-sulfonyl)cyclopropane-1-carboxamide], the EC50 is < 3 µM under setting [5] and < 3 µM under setting [7]. The “Maximum % activity (with co-corrector)” value under setting [6] is listed as “+++ (≥350)”. The Emax under setting [8] is > 150%.
With `COc1ccc(C2CCC2)cc1C1(C(=O)NS(=O)(=O)c2cccc3ccn(C)c23)CC1` [Example I-59, 1-(5-cyclobutyl-2-methoxyphenyl)-N-(1-methyl-1H-indole-7-sulfonyl)cyclopropane-1-carboxamide], the EC50 under setting [5] is < 3 µM and the EC50 under setting [7] was < 3 µM. Also, under setting [6], the “Maximum % activity (with co-corrector)” value is on record as “+++ (≥350)”. In addition, the Emax under setting [8] was > 150%.
Turning to `COc1cc(C2(C(=O)NS(=O)(=O)c3cccc4ncccc34)CC2)c(Cl)cn1` [GII-6, 1-(5-chloro-2-methoxypyridin-4-yl)-N-(quinoline-5-sulfonyl)cyclopropane-1-carboxamide], the “Maximum % activity (with co-corrector)” value under setting [1] was “++ (≥150 and <350)”. The EC50 runs as follows: under setting [2], 3 to 10 µM; under setting [4], 3 to 10 µM. Further, the Emax under setting [3] was 50 to 150%.
Consider `O=C(NS(=O)(=O)c1cccc2c1CCCN2)C1(c2ccc(C(F)(F)F)nc2C2CCC2)CC1` [Example GI-10, 1-[2-cyclobutyl-6-(trifluoromethyl)pyridin-3-yl]-N-(1,2,3,4-tetrahydroquinoline-5-sulfonyl)cyclopropane-1-carboxamide], for which the EC50 runs as follows: under setting [5], < 3 µM; under setting [7], < 3 µM. Under setting [6], the “Maximum % activity (with co-corrector)” value was “+++ (≥350)”. The Emax under setting [8] was > 150%.
`COc1ccc(C(C)(C)OC)cc1C1(C(=O)NS(=O)(=O)c2cccc3[nH]ccc23)CC1` [II-88]: the EC50 is, setting by setting: under setting [5], 3 to 10 µM; under setting [7], < 3 µM. Also, under setting [6], the “Maximum % activity (with co-corrector)” value was “+++ (≥350)”. The Emax under setting [8] was > 150%.
In the case of `COc1cccc(C2(C(=O)NS(=O)(=O)c3ccccc3C)CCOCC2)c1` [Example III-81, 4-(3-methoxyphenyl)-N-(2-methylbenzene-1-sulfonyl)oxane-4-carboxamide], the EC50 runs as follows: under setting [5], > 10 µM; under setting [7], > 10 µM. Besides, the “Maximum % activity (with co-corrector)” value under setting [6] is recorded as “+ (<150)”. Moreover, under setting [8], the Emax is < 50%.
Consider `COC(=O)c1ccc(OC)c(C2(C(=O)NS(=O)(=O)c3cccc4ncccc34)CC2)c1` [II-31], for which the Emax was > 150%. Besides, under setting [5], the EC50 lay within 3 to 10 µM. For the same compound, the “Maximum % activity (with co-corrector)” value under setting [6] is recorded as “+++ (≥350)”. Moreover, the EC50 under setting [7] was < 3 µM.
